Reference: PMC5962729 (Frontiers in Pharmacology, 2018)

Tests used:
[1] = test system: ANIT-induced cholestatic liver injury; experiment: Liver histopathological examination (H&E) in ANIT-induced cholestatic rats; assay type: in vivo, rat; conditions: UDCA + ANIT 50 mg/kg
Description: Male Sprague Dawley rats (230 ± 20 g, 6–8 weeks of age) were purchased from B&K Laboratory Animal, Corp. Ltd. (Shanghai, China) and fed in the Laboratory Animal Center of Shanghai University of Traditional Chinese Medicine. All rats were allowed to acclimatize for 3 days before experimentation. The rats were randomly divided into six groups (n = 5 for each group). […] Moreover, groups 1 and 2 were intragastrically treated with physiological saline (0.9%) at a dose of 1 mL/100 g. […] At the end of the experiment, all rats were euthanized by CO2 inhalation. The serum samples were stored at -70°C until analysis, and liver samples were isolated and stored at -70°C for further analysis, whereas the central part of the right large lobe of the liver was used for histological examination.

OATP1A1 = experiment: Expression level of OATP1A1 in rat liver by UHPLC-MS/MS; assay type: in vivo; conditions: UDCA group, ANIT-treated rats; mean ± S.D.
Description: Male Sprague Dawley rats (230 ± 20 g, 6–8 weeks of age) were purchased from B&K Laboratory Animal, Corp. Ltd. (Shanghai, China) and fed in the Laboratory Animal Center of Shanghai University of Traditional Chinese Medicine. All rats were allowed to acclimatize for 3 days before experimentation. The rats were randomly divided into six groups (n = 5 for each group). […] The rats in groups 4, 5, and 6 were intragastrically administered YCHD every 24 h for 10 consecutive days. The rats in group 3 were orally administered UDCA at a dose of 100 mg/kg every 24 h for 10 consecutive days, which is well-documented to treat induced liver injury and cholestasis ([Chen et al., 2016]; [Cao et al., 2017]). Moreover, groups 1 and 2 were intragastrically treated with physiological saline (0.9%) at a dose of 1 mL/100 g. […] At the end of the experiment, all rats were euthanized by CO2 inhalation. The serum samples were stored at -70°C until analysis, and liver samples were isolated and stored at -70°C for further analysis, whereas the central part of the right large lobe of the liver was used for histological examination. […]
Total membrane protein was isolated (in triplicate) from liver tissue according to the Native Membrane Protein Extraction Kit protocol. Subsequently, protein concentrations were determined by applying the BCA Protein Assay Kit. […]

C[C@H](CCC(=O)O)[C@H]1CC[C@H]2[C@@H]3[C@@H](O)C[C@@H]4C[C@H](O)CC[C@]4(C)[C@H]3CC[C@]12C [UDCA, Ursodeoxycholic acid]
liver histopathology (H&E) [1]: hepatocyte hydropic degeneration with less neutrophil infiltration and a milder degree of bile duct epithelial damage
Oatp1a1 expression level in rat liver (OATP1A1): 3.42±1.23 fmol/μg protein
